In one series the test system is MV-4-11 cells. Briefly: Anti-proliferation CellTiter-Glo assay, MV-4-11. In kind it is cell-based. Particulars: Homo sapiens, MV4-11, 12th day. The text has this: (§1) MV-4-11 and MDA-MB-468 cell lines were used to evaluate the anti-proliferative activities of the selected target compounds (CellTiter-Glo assay), and AML-12 hepatocytes were selected to evaluate the toxicity of the compounds.
(§2) MV-4-11 and MDA-MB-468 cell line were derived from Cell Resources Center of Shanghai Academy of life sciences (Shanghai, China). AML-12 cell line was brough from Nanjing Lixing Biotechnology Co. Ltd. (Nanjing, China). MDA-MB-468 cell line was maintained in Dulbecco’s Modified Eagle Medium (DMEM, KeyGEN Bio) that contained 10% FBS (Biochanel, China), MV-4-11 cell line was maintained in Iscove’s Modified Dulbecco Medium containing; 10% FBS (Biochannel, China), AML-12 cell line was maintained in DMEM/F-12 (1:1) (KeyGEN, China; 1% ITS Liquid Media Supplement (Sigma, America), dexamethasone 40 ng/mL (Sigma, USA) and 10% FBS (Biochannel, China). All cells were grown in a humidified incubator containing 5% carbon dioxide at 37 ℃. All compounds were dispersed in dimethyl sulfoxide (Sigma), the concentration of the reserve solution was 10 mmol/L and the solution was stored in a refrigerator at −20 ℃. SDMA (# 13222S), β- Tubulin (#2146S) and horseradish peroxidase (HRP)-linked secondary antibodies anti-rabbit or anti-mouse IgG were purchased from Cell Signaling Technology (CST), and the anti-PRMT5 (ab109451) antibody was purchased from ABCAM.
(§3) The antiproliferative activities of compounds in vitro were measured by CellTiter-Glo (CTG) assay (Promega, America). In linear/log-phase growth, cultured MV-4-11 cells were split to with seeding density of 2 × 10^5 cells/mL in 1–20 mL of media, depending on the yield required at the end of the growth period. At the conclusion of each treatment period, cells were harvested by centrifugation (4 min, 1000 rpm), and cell pellets were rinsed twice with PBS before being research further processing. Afterwards, cells were plated in 96-well plates with a density of 500 cells/well in […] media. After six hours incubation, compounds treatment was performed. Half of the culture medium was moved and re-plated with fresh media with fresh compound after 6 days. On the 12th day, Cell Titer-Glo Luminescent Cell Viability assays (Promega, USA) were used to determine the viable cell number, and luminescence was recorded using the Envision Multilabel Plate Readers (PerkinElmer). The concentration dependence curves were determined at each time point using GraphPad Prism 8.0 software.

In a further series the test system is MDA-MB-468 cells. Briefly: Anti-proliferation CellTiter-Glo assay, MDA-MB-468. Particulars: Homo sapiens. In kind it is cell-based.
Text: as §1, §2, §3
(In general: Cellular ATP, detected with luciferase, serves as a proxy for viable cell number.)

The target in the next series is T1, PRMT5 (Homo sapiens, UniProt O14744).
T1 construct: The final concentrations of PRMT5 enzyme: 2.5 nm/L
Description: PRMT5 enzymatic activity inhibition assay (radioactive methylation, 3H-SAM to H4R3 peptide). Particulars: for inhibition at 0.1 µM: 100 nM compound, read-out: Inhibition Rate% @100 nM. In kind it is biochemical. As for the experimental part:
The PRMT5 enzymatic activity assay was conducted by Chempartner Life science. The final concentrations of PRMT5 enzyme: 2.5 nm/L; ^3H-SAM: 0.3 μM/L; histone peptide (H4R3S1ac): 0.3 μM/L. The protocol of radioactive methylation assay was as follows: (1) Prepare 1× assay buffer (modified Tris Buffer). (2) Transfer compounds to assay plate using Echo in 100% DMSO. DMSO’s final fraction is 1%. (3) Prepare enzyme and ^3H-SAM Mix solution in 1× assay buffer. (4) Prepare substrate (peptide sequence Ac-[…]-K(Biotin)) solution in 1× assay buffer. (5) Transfer 15 μL of enzyme and ^3H-SAM solution to assay plate. (6) Incubate at room temperature for 60 min. (7) Add 10 μL of substrate solution to each well to start the reaction, and for low control transfer 10 μL of 1× assay buffer. (8) Incubate at room temperature for 120 min. (9) Add cold SAM in 1× assay buffer to make the stop mix. (10) Stop reaction with addition of 5 µL per well of stop solution. (11) Transfer 25 µL of volume per well to Flash plate from assay plate. (12) Incubate for 1 h minimum at room temperature.
(13) Read plate on Micro beta. (14) Data process—get the data in Excel to obtain inhibition values using Equation (1).Inhibitory rate% = (Max-Signal)/ (Max-Min) × 100(1)
Fit the data in XL-Fit to obtain IC50 values using Equation (2): Y = Bottom + (Top-Bottom)/(1 + (IC50/X) […]) Y is% inhibition and X is compound concentration(2)

A further series deals with AML-12 hepatocytes. Briefly: Toxicity on normal AML-12 hepatocytes. In kind it is cell-based. Particulars: Mus musculus, AML12; for inhibition at 10 µM: read-out: AML-12 Inhibition Rate% @10 μM; for inhibition at 20 µM: read-out: AML-12 Inhibition Rate% @20 μM.
Text: as §1
as §2, with “ABCAM. […]” for “ABCAM.”

For series [1] the following is noted: no reference given; cited from earlier work.
For another series, the system named is MV-4-11 xenograft. Briefly: MV-4-11 xenograft mouse model. In kind it is in vivo, BALB/c nude mice. Particulars: 10 mg/kg, twice daily (BID), 28 days. On the procedure:
Based on the excellent enzymatic and anti-proliferative activities of compound 20 in vitro, we then evaluated antitumor activities in vivo in an MV-4-11 xenograft mouse model.
Male BALB/c nude mice (6–8 weeks old) were purchased from Hangzhou Medical College. All animals were housed in a specific pathogen-free facility. MV-4-11 cells (5 × 10^6) suspended in 0.2 mL of PBS were inoculated subcutaneously on the right flank of each BALB/c nude mouse. Mice were divided randomly (5 mice for each group) into two treatment groups and a control group when the size of the tumors reached 150 mm^3. […] The tumor volume and body weight were measured every 2 days. The tumor volume was determined with Vernier calipers and calculated as follows: tumor volume = a × b^2/2, where a and b stand for the longest and shortest diameters measured by the vernier caliper, respectively. All animal experiments have been approved by Pharmaceutical Experiment Center of China Pharmaceutical University.
(A) The resulting tumors excised from the animals after treatment. […] (C) The nude mouse body weight was measured every 2 days. (D) The tumor volumes of the nude mice were measured and calculated once every 2 days.

T1 sequence (O14744 whole entry): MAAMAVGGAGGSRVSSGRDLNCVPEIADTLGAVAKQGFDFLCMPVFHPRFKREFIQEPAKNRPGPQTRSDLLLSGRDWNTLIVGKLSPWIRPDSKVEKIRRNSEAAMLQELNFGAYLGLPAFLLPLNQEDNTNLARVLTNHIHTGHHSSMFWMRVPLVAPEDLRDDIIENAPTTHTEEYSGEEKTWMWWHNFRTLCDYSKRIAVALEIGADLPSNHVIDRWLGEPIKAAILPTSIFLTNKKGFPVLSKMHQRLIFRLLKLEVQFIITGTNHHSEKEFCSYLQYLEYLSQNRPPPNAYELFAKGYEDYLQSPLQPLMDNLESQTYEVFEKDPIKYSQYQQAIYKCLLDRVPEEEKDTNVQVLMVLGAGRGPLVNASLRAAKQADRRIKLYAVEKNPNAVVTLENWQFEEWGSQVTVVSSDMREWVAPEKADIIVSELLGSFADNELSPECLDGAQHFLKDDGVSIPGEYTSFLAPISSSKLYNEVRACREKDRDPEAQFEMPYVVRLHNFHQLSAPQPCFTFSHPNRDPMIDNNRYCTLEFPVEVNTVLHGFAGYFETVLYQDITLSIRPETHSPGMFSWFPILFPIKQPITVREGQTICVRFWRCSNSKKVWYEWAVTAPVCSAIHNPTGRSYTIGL
T1 sequence (Q9BQA1 whole entry partner): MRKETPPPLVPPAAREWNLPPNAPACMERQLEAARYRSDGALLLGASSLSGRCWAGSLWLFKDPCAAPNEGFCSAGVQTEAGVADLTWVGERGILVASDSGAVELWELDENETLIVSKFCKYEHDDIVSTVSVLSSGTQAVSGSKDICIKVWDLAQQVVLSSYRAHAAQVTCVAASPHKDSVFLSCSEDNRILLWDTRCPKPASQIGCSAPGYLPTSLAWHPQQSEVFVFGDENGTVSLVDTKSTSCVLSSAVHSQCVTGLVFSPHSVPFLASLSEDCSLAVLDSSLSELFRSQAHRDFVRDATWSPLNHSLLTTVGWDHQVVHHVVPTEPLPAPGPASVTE

Molecule `O=C(NC[C@H](O)CN1CCc2ccccc2C1)c1ccc2[nH]c3c(c2c1)CCCC3` [Compound 7, (S)-N-(3-(3,4-dihydroisoquinolin-2(1H)-yl)-2-hydroxypropyl)-2,3,4,9-tetrahydro-1H-carbazole-6-carboxamide] yielded a GI50 in the series with MV-4-11 cells of 54.1 ± 20.5 nM. Also, the concentration for 50% growth inhibition (GI50) with MDA-MB-468 cells is more than 250 nM. Moreover, on PRMT5, the IC50 stood at 18.6 ± 0.9 nM and the inhibition at 0.1 µM came to 75 ± 0.7%. Moreover, in the series with AML-12 hepatocytes, the inhibition at 10 µM turned out to be 46.4 ± 3.7% and the inhibition at 20 µM worked out at 98.4 ± 0.7%.
In the series on MV-4-11 cells, `O=C(NC[C@H](O)CN1CCc2ccccc2C1)c1ccc2[nH]c3c(c2c1)CCCCCC3` [Compound 10, (S)-N-(3-(3,4-dihydroisoquinolin-2(1H)-yl)-2-hydroxypropyl)-6,7,8,9,10,11-hexahydro-5H-cycloocta[b]indole-2-carboxamide] registered a GI50 of 42.4 ± 2.6 nM. The same molecule displayed a GI50 with MDA-MB-468 cells of 126 ± 70.9 nM. Further, on PRMT5, the inhibition at 0.1 µM was found to be 71 ± 1.3%. Moreover, in the series with AML-12 hepatocytes, the inhibition at 10 µM came out at 97.9 ± 1.2% and the inhibition at 20 µM is 100.7 ± 0.1%.
The molecule `Cn1c2c(c3cc(C(=O)NC[C@H](O)CN4CCc5ccccc5C4)ccc31)CCCC2` [Compound 13, (S)-N-(3-(3,4-dihydroisoquinolin-2(1H)-yl)-2-hydroxypropyl)-9-methyl-2,3,4,9-tetrahydro-1H-carbazole-6-carboxamide] yielded a GI50 in the series on MV-4-11 cells of 163.1 ± 0.3 nM. Besides, in the series with MDA-MB-468 cells, the GI50 came to 147 ± 2.5 nM. On PRMT5, the IC50 stood at 10 ± 4.4 nM and the inhibition at 0.1 µM was found to be 75 ± 0.7%. In addition, in the series on AML-12 hepatocytes, the inhibition at 10 µM was determined as 16.3 ± 3.4% and the inhibition at 20 µM worked out at 21.2 ± 2%.
Consider `CCn1c2c(c3cc(C(=O)NC[C@H](O)CN4CCc5ccccc5C4)ccc31)CCCC2` [Compound 14, (S)-N-(3-(3,4-dihydroisoquinolin-2(1H)-yl)-2-hydroxypropyl)-9-ethyl-2,3,4,9-tetrahydro-1H-carbazole-6-carboxamide], for which the GI50 with MV-4-11 cells came to 29.7 ± 12.8 nM. In the series on MDA-MB-468 cells, halving of growth (GI50) required 286 ± 5.9 nM. Besides, at PRMT5, the IC50 stood at 8.8 ± 0.4 nM and the inhibition at 0.1 µM was determined as 81 ± 3.2%. For the same molecule, in the series on AML-12 hepatocytes, the inhibition at 10 µM was -67 ± 11.3% and the inhibition at 20 µM came to 17.7 ± 3.5%.
In the series on MV-4-11 cells, `CCCn1c2c(c3cc(C(=O)NC[C@H](O)CN4CCc5ccccc5C4)ccc31)CCCC2` [Compound 15] gave a GI50 of 39.5 ± 1.9 nM. This molecule gave a GI50 with MDA-MB-468 cells of 24.9 ± 20.2 nM. For the same molecule, on PRMT5, the half-inhibitory concentration (IC50) amounted to 4.2 ± 2.1 nM and the inhibition at 0.1 µM was 79 ± 4%. Moreover, in the series with AML-12 hepatocytes, the inhibition at 10 µM is -21.5 ± 2% and the inhibition at 20 µM was determined as 77.3 ± 1.6%.
As for `O=C(NC[C@H](O)CN1CCc2ccccc2C1)c1ccc2c(c1)c1c(n2CC2CCC2)CCCC1` [Compound 19, (S)-9-(cyclobutylmethyl)-N-(3-(3,4-dihydroisoquinolin-2(1H)-yl)-2-hydroxypropyl)-2,3,4,9-tetrahydro-1H-carbazole-6-carboxamide], the GI50 in the series with MV-4-11 cells was found to be 16 ± 2.3 nM. Moreover, in the series with MDA-MB-468 cells, the GI50 is 99.1 ± 8.3 nM. Besides, on PRMT5, the IC50 was found to be 7.5 ± 0.3 nM and the inhibition at 0.1 µM is 80 ± 1%. Besides, in the series on AML-12 hepatocytes, the inhibition at 10 µM came out at 32.9 ± 5.4% and the inhibition at 20 µM stood at 100.2 ± 0.9%.
Regarding `CC(=O)N1CCC(Nc2cc(C(=O)NC[C@H](O)CN3CCc4ccccc4C3)ncn2)CC1` [GSK-3326595, reference compound], the GI50 with MV-4-11 cells was found to be 9.3 ± 2.8 nM. The same molecule registered a GI50 with MDA-MB-468 cells of 37.3 ± 3 nM. The “adverse events in clinical studies” value in series [1] is “grade 3 or 4 adverse events”. In the series on MV-4-11 xenograft, this molecule came in with a TGI of 39.3%. In addition, in the series on AML-12 hepatocytes, the inhibition at 10 µM worked out at 22.9 ± 3% and the inhibition at 20 µM is 26.5 ± 2%.

In general, GI50 refers to the concentration that inhibits growth by half. Read a high GI50 as less potent growth inhibition. What is called IC50 is the midpoint of a concentration-inhibition curve. Usually inhibition stands for the relative decrease from the control value, in per cent. The TGI is how far tumour growth fell short of that in controls. Higher therefore signals much slowing of growth.

These data come from article PMC9572541, “Design, Synthesis and Biological Evaluation of Novel and Potent Protein Arginine Methyltransferases 5 Inhibitors for Cancer Therapy” (Molecules, 2022).
